The values that follow come from patent US8609680B2, “2,3-dihydro-1H-inden-1-yl-2,7-diazaspiro[3.5] nonane derivatives” (Pfizer Inc., priority 2010, dated 2013).

The target of this experiment is T1, human GHSR1a (Homo sapiens, UniProt Q92847).
T1 construct: expressed in transfected cells; host or cells: HEK293 Tetracycline-Inducible cell line, used as membranes
Kind of experiment: Human Ghrelin SPA Binding Assay. The text has this: The SPA format was utilized for high throughput screening of test compounds and filter binding served for more comprehensive binding characterization.
Human Ghrelin SPA Binding Assay

T1 sequence (Q92847 whole entry): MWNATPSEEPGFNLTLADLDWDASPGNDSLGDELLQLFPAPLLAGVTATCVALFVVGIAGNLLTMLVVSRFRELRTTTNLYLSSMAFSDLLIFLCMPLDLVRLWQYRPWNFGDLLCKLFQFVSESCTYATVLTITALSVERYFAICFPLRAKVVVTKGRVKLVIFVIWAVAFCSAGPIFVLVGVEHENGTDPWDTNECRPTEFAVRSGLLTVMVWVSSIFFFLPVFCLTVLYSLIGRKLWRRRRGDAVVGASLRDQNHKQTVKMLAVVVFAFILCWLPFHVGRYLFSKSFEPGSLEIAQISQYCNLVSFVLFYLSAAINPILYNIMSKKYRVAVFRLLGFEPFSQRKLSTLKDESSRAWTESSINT

What is called Ki is a measure of affinity in units of concentration, obtained from inhibition or displacement. Lower therefore signals tighter binding. `Cc1ccc(CC(=O)N2CCC3(CC2)CN([C@@H]2CCc4cc(-n5nccn5)ccc42)C3)nc1` [Example 6A, 7-[(5-methylpyridin-2-yl)acetyl]-2-[5-(2H-1,2,3-triazol-2-yl)-2,3-dihydro-1H-inden-1-yl]-2,7-diazaspiro[3.5]nonane] registered an inhibition constant (Ki) of 54.8 nM. By IC50 is commonly meant the point on the concentration scale where inhibition reaches its midpoint. Low values mean higher potency, high ones lower potency. `COc1ccc(CC(=O)N2CCC3(CC2)CN(C2CCc4cc(-c5ccnc(C)n5)ccc42)C3)cc1` (stereo not drawn) [Example 1D] had an IC50 of 19.4 nM.

Turning to `COc1ccc(CC(=O)N2CCC3(CC2)CN([C@@H]2CCc4cc(-n5cccn5)ccc42)C3)nc1` [Example 8C], the concentration for half-maximal inhibition (IC50) was determined as 82.3 nM and the inhibition constant Ki came out at 66.4 nM. Taken in the same sequence, the figures for `COc1ccc(CC(=O)N2CCC3(CC2)CN([C@@H]2CCc4cc(-c5ccc(C(N)=O)nc5)ccc42)C3)nc1` [Example 9B] were 55.2 nM and 47.5 nM. Taken in the same sequence, the figures for `COc1ccc(CC(=O)N2CCC3(CC2)CN([C@@H]2CCc4cc(-c5cc(OC)ncn5)ccc42)C3)nc1` [Example 3V] were 20.7 nM and 17.4 nM. Taken in the same sequence, the figures for `CCOc1ccc(CC(=O)N2CCC3(CC2)CN([C@@H]2CCc4cc(-n5nccn5)ccc42)C3)nc1` [Example 6G] were 43.2 nM and 34.4 nM. For the compound `COc1ccc(CC(=O)N2CCC3(CC2)CN([C@@H]2CCc4cc(-c5ncco5)ccc42)C3)nc1` [Example 3AG], the IC50 is 40.1 nM and the Ki amounted to 33.1 nM. As to `COc1ccc(CC(=O)N2CCC3(CC2)CN(C2CCc4cc(-c5ccnc(C)c5)ccc42)C3)nc1` (racemic) [Example 2B], the half-inhibitory concentration (IC50) turned out to be 6.75 nM. `COc1ccc(NC(C)=O)c(CC(=O)N2CCC3(CC2)CN([C@@H]2CCc4cc(-c5ncccn5)ccc42)C3)c1` [Example 3P]: the 50% inhibitory concentration (IC50) is 36.3 nM and the inhibitory constant (Ki) was found to be 31.7 nM. Taken in the same sequence, the figures for `NC(=O)c1ccc(-c2ccc3c(c2)CC[C@H]3N2CC3(CCN(C(=O)Cc4cn5ccccc5n4)CC3)C2)cc1` [Example 4E] were 42.6 nM and 36.8 nM.

Consider `N#Cc1cc(-c2ccc3c(c2)CC[C@H]3N2CC3(CCN(C(=O)Cc4ccc(C5CC5)cn4)CC3)C2)ncn1` [Example 3AZ], for which the IC50 was found to be 17.4 nM and the affinity, expressed as Ki, was 15.4 nM.

Take `COc1ccc(CC(=O)N2CCC3(CC2)CN(C2CCc4cc(-c5ccc(C)cn5)ccc42)C3)nc1` (racemic) [Example 2D]: the IC50 amounted to 21.4 nM.

In the case of `Cc1ccc(CC(=O)N2CCC3(CC2)CN([C@@H]2CCc4cc(-c5ncccn5)ccc42)C3)cc1` [Example 5E], the IC50 was 18.6 nM and the affinity corresponds to a Ki of 15.6 nM. Take `O=C(Cc1cn(-c2ccccc2)cn1)N1CCC2(CC1)CN([C@@H]1CCc3cc(-c4ncccn4)ccc31)C2` [Example 3AV]: the IC50 amounted to 229 nM and affinity was put at a Ki of 198 nM.

Turning to `COc1ccc(CC(=O)N2CCC3(CC2)CN([C@@H]2CCc4cc(-c5nnc(C)s5)ccc42)C3)nc1` [Example 6J], the half-maximal inhibitory concentration (IC50) worked out at 327 nM and the Ki came out at 264 nM. `O=C(Cc1cc2ccccn2n1)N1CCC2(CC1)CN(C1CCc3cc(-c4ncccn4)ccc31)C2` (racemic) [Example 5H] yielded an IC50 of 5.9 nM. `COc1ccc(CC(=O)N2CCC3(CC2)CN([C@@H]2CCc4cc(-c5ccnc(C)n5)ccc42)C3)nc1` [Example 3K] gave an IC50 of 99.5 nM and a Ki of 87.1 nM.

`COc1ccc(CC(=O)N2CCC3(CC2)CN([C@@H]2CCc4cc(-c5cnc(C(N)=O)cn5)ccc42)C3)nc1` [Example 10A, 5-[(1R)-1-{7-[(5-methoxypyridin-2-yl)acetyl]-2,7-diazaspiro[3.5]non-2-yl}-2,3-dihydro-1H-inden-5-yl]pyrazine-2-carboxamide] displayed an IC50 of 62.6 nM and an inhibition constant (Ki) of 55.5 nM.

`Cc1cc(CC(=O)N2CCC3(CC2)CN([C@@H]2CCc4cc(-c5ncccn5)ccc42)C3)[nH]n1` [Example 3AX] registered an IC50 of 801 nM and a Ki of 691 nM.
